Experiments:
tankyrase 1/2 = assay: Cellular inhibition of tankyrase: increase of Axin2 level in DLD1 cells (Luminex); assay type: cell-based; details: DLD1 colon carcinoma cells, 24 hours, read-out: EC50 tankyrase 1/2 (cell assay)
Protocol: Measurement of Cellular Inhibition of Tankyrase
Since Tankyrases have been described to modulate cellular level of Axin2 (Huang et al., 2009; Nature) the increase of Axin2 level is used as read-out for determination of cellular inhibition of Tankyrases in a Luminex based assay.
Cells of the colon carcinoma cell line DLD1 are plated in 96 well plates with 1.5×10^4 cells per well. Next day, cells are treated with a serial dilution of test compound in seven steps as triplicates with a final DMSO concentration of 0.3%. After 24 hours, cells are lysed in lysis buffer (20 mM Tris/HCl pH 8.0, 150 mM NaCl, 1% NP40, 10% Glycerol) and lysates are cleared by centrifugation through a 96 well filter plate (0.65 μm). Axin2 protein is isolated from cell lysates by incubation with a monoclonal anti-Axin2 antibody (R&D Systems #MAB6078) that is bound to fluorescent carboxybeads. Then, bound Axin2 is specifically detected with a polyclonal anti-Axin2 antibody (Cell Signaling #2151) and an appropriate PE-fluorescent secondary antibody. The amount of isolated Axin2 protein is determined in a Luminex^200 machine (Luminex Corporation) according to the manufacturer's instruction by counting 100 events per well. Inhibition of Tankyrase by test compounds results in higher levels of Axin2 which directly correlates with an increase of detectable fluorescence. As controls cells are treated with solvent alone (neutral control) and with a Tankyrase reference inhibitor IWR-2 (3E-06 M) which refers as control for maximum increase of Axin2. For analysis, the obtained data are normalized against the untreated solvent control and fitted for determination of the EC50 values using the Assay Explorer software (Accelrys).

Tankyrase-1 = target: T1, Tankyrase-1 (Homo sapiens, UniProt O95271); assay: Tankyrase 1 autoparsylation assay (HTRF enzyme assay); assay type: biochemical; details: GST-tagged Tankyrase-1 (1023-1327 aa)
T1 construct: GST-tagged Tankyrase-1 (1023-1327 aa)
T1 sequence (O95271 1023-1327): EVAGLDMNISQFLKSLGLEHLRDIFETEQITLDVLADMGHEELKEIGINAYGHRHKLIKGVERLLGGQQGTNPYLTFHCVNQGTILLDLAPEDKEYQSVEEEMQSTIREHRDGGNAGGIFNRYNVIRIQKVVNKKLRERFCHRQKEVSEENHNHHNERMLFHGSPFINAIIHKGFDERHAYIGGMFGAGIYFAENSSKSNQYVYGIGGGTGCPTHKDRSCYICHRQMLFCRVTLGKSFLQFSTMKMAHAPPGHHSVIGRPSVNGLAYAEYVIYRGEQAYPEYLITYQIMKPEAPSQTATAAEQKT
Protocol: (§1) Biochemical activity testing of Tankyrase 1 and 2: Autoparsylation assay
(§2) The autoparsylation assay is run in two steps: the enzymatic reaction in which GST-tagged Tankyrase-1, resp Tankyrase-2 transferred biotinylated ADP-ribose to itself from biotinylated NAD as co-substrate and the detection reaction where a time resolved FRET between cryptate labelled anti-GST bound to the GST tag of the enzyme and Xlent® labelled-streptavidin bound the biotin-parsylation residue is analysed. The autoparsylation activity was detectable directly via the increase in HTRF signal.
(§3) The autoparsylation assay is performed as 384-well HTRF® (Cisbio, Codolet, France) assay format in Greiner low volume nb 384-well microtiter plates and is used for high throughput screen. 250 nM GST-tagged Tankyrase-1 (1023-1327 aa), respectively about 250 nM GST-tagged Tankyrase-2 (873-1166 aa) and 5 μM bio-NAD (Biolog, Life science Inst., Bremen, Germany) as co-substrate are incubated in a total volume of 5 μl (50 mM HEPES, 4 mM Mg-chloride, 0.05% Pluronic F-68, 1.4 mM DTT, 0.5% DMSO, pH 7.7) in the absence or presence of the test compound (10 dilution concentrations) for 90 min at 30° C. The reaction is stopped by the addition of 1 μl 50 mM EDTA solution. 2 μl of the detection solution (1.6 μM SA-Xlent® (Cisbio, Codolet, France), 7.4 nM Anti-GST-K® (Eu-labelled anti-GST, Cisbio, Codolet, France) in 50 mM HEPES, 800 mM KF, 0.1% BSA, 20 mM EDTA, 0.1% CHAPS, pH 7.0) are added. After 1 h incubation at room temperature the HTRF is measured with an Envision multimode reader (Perkin Elmer LAS Germany GmbH) at excitation wavelength 340 nm (laser mode) and emission wavelengths 615 nm and 665 nm. The ratio of the emission signals is determined. The full value used is the inhibitor-free reaction. The pharmacological zero value used is XAV-939 (Tocris) in a final concentration of 5 μM. The inhibitory values (IC50) are determined using either the program Symyx Assay Explorer® or Condosseo® from GeneData.

TNKS1 = target: T2, TNKS1 (Homo sapiens, UniProt O95271); assay: TNKS1 activity ELISA (autoparsylation assay); assay type: biochemical; details: GST-tagged Tnks-1 (1023-1327 aa), luminescence
T2 construct: GST-tagged Tnks-1 (1023-1327 aa, prepared in-house); made in house
T2 sequence (O95271 1023-1327): as above
Protocol: Description of the TNKS1 and TNKS2 ELISA Assay
Biochemical activity testing of TNKS 1 and 2: activity ELISA (Autoparsylation assay)
For analysis of autoparsylation activity of TNKS 1 and 2 an activity ELISA iss performed: In the first step GST tagged TNKS is captured on a Glutathione coated plate. Then the activity assay with biotinylated NAD is performed in the absence/presence of the compounds. During the enzymatic reaction GST tagged TNKS transfers biotinylated ADP-ribose to itself from biotinylated NAD as co-substrate. For the detection streptavidin-HRP conjugate is added that binds to the biotinylated TNKS and is thereby captured to the plates. The amount of biotinylated resp. autoparsylated TNKS is detected with a luminescence substrate for HRP. The level of the luminescence signal correlats directly with the amount of autoparsylated TNKS and therefore with activity of TNKS.
The acitivity ELISA is performed in 384 well Glutathione coated microtiter plates (Express capture Glutathione coated plate, Biocat, Heidelberg, Germany). The plates are pre-equilibrated with PBS. Then the plates are incubated with 50 μl 20 ng/well GST-tagged Tnks-1 (1023-1327 aa, prepared in-house), respectively GST-tagged Tnks-2 (873-1166 aa, prepared in-house) in assay buffer (50 mM HEPES, 4 mM Mg-chloride, 0.05% Pluronic F-68, 2 mM DTT, pH 7.7) overnight at 4° C. The plates are washed 3 times with PBS-Tween-20. The wells are blocked by incubation at room temperature for 20 minutes with 50 μl blocking buffer (PBS, 0.05% Tween-20, 0.5% BSA). Afterwards the plates are washed 3 times with PBS-Tween-20. The enzymatic reaction is performed in 50 μl reaction solution (50 mM HEPES, 4 mM Mg-chloride, 0.05% Pluronic F-68, 1.4 mM DTT, 0.5% DMSO, pH 7.7) with10 μM bio-NAD (Biolog, Life science Inst., Bremen, Germany) as co-substrate in the absence or presence of the test compound (10 dilution concentrations) for 1 hour at 30° C. The reaction is stopped by 3 times washing with PBS-Tween-20. For the detection 50 μl of 20 ng/μl Streptavidin, HRP conjugate (MoBiTec, Göttingen, Germany) in PBS/0.05% Tween-20/0.01% BSA are added and the plates are incubated for 30 minutes at room temperature. After three times washing with PBS-Tween-20 50 μl of SuperSignal ELISA Femto Maximum sensitivity substrate solution (ThermoFisherScientific (Pierce), Bonn, Germany) are added. Following a 1 minute incubation at room temperature luminescence signals are measured with an Envision multimode reader (Perkin Elmer LAS Germany GmbH) at 700 nm. The full value used is the inhibitor-free reaction. The pharmacological zero value used is XAV-939 (Tocris) in a final concentration of 5 μM. The inhibitory values (IC50) are determined using either the program Symyx Assay Explorer® or Condosseo® from GeneData.

Tankyrase-2 = target: T3, Tankyrase-2 (Homo sapiens, UniProt Q9H2K2); assay: Tankyrase 2 autoparsylation assay (HTRF enzyme assay); assay type: biochemical; details: GST-tagged Tankyrase-2 (873-1166 aa)
T3 construct: GST-tagged Tankyrase-2 (873-1166 aa)
T3 sequence (Q9H2K2 873-1166): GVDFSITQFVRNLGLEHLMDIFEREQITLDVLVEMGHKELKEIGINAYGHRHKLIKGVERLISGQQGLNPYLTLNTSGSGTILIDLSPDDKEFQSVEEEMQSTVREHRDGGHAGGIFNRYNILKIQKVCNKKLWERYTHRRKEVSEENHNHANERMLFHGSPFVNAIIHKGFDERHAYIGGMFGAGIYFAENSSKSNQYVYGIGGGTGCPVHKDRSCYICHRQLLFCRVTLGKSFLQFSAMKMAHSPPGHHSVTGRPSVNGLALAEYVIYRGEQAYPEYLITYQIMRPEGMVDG
Protocol: as §1, §2, §3

DLD-1-cancer cells = details: DLD-1 cells; Huang et al., 2009, Nature; cited from earlier work

Row | Compound | EC50 (tankyrase 1/2) [nM] | IC50 (Tankyrase-1) [nM] | IC50 (TNKS1) [nM] | IC50 (Tankyrase-2) [nM] | growth of DLD-1-cancer cells (DLD-1-cancer cells)
1 | CC(C)(C)c1ccc(-c2cc3cnccc3c(=O)[nH]2)cc1 [Compound A1, 3-(4-tert-butyl-phenyl)-2H-[2,6]naphthyridin-1-one] | < 300 | < 300 | < 300 | 300 to 3000 | 
2 | COC(=O)c1ccc(-c2cc3ccccc3c(=O)[nH]2)cc1 [Compound A2, 4-(1-oxo-1,2-dihydro-isoquinolin-3-yl)-benzoic acid methyl ester] | 300 to 3000 | < 300 |  | < 300 | 
3 | COC(=O)c1ccc(-c2cc3ccc(F)cc3c(=O)[nH]2)cc1 [Compound A4, 4-(7-Fluoro-1-oxo-1,2-dihydro-isoquinolin-3-yl)-benzoic acid methyl ester] | 300 to 3000 | 300 to 3000 |  | 300 to 3000 | 
4 | Cc1ccc2cc(-c3ccc(C(C)(C)O)cc3)[nH]c(=O)c2c1 [Compound A7, 3-[4-(1-hydroxy-1-methyl-ethyl)-phenyl]-7-methyl-2H-isoquinolin-1-one] | 300 to 3000 | 300 to 3000 |  | 300 to 3000 | 
5 | O=c1[nH]c(-c2ccc(CO)cc2)cc2ccccc12 [Compound A8, 3-(4-hydroxymethyl-phenyl)-2H-isoquinolin-1-one] | < 300 | < 300 |  | 300 to 3000 | 
6 | CC(C)(F)c1ccc(-c2cc3ccccc3c(=O)[nH]2)cc1 [Compound A13, 3-[4-(1-fluoro-1-methyl-ethyl)-phenyl]-2H-isoquinolin-1-one] | 300 to 3000 | < 300 |  | 300 to 3000 | 
7 | Cn1cc(-c2ccc(-c3cc4cnccc4c(=O)[nH]3)cc2)cn1 [Compound A19, 3-[4-(1-Methyl-1H-pyrazol-4-yl)-phenyl]-2H-[2,6]naphthyridin-1-one] |  | 300 to 3000 |  | 300 to 3000 | 
8 | CC1(c2ccc(-c3cc4ccc(F)cc4c(=O)[nH]3)cc2)CCCO1 (stereo not drawn) [Compound A21, 7-fluoro-3-[4-(2-methyltetrahydrofuran-2-yl)phenyl]-2H-isoquinolin-1-one] | 300 to 3000 | < 300 |  | 300 to 3000 | 
9 | CC(C)(O)c1ccc(-c2cc3ccc(Cl)cc3c(=O)[nH]2)cc1 [Compound A25, 7-chloro-3-[4-(1-hydroxy-1-methyl-ethyl)phenyl]-2H-isoquinolin-1-one] | 300 to 3000 | < 300 |  | 300 to 3000 | 
10 | Cc1ccc(-c2cc3c(C(F)(F)F)cccc3c(=O)[nH]2)cc1 [Compound A30, 3-(p-tolyl)-5-(trifluoromethyl)-2H-isoquinolin-1-one] |  | 300 to 3000 |  | 3000 to 50000 | 
11 | Cn1cc(-c2ccc(-c3cc4ccc(Cl)cc4c(=O)[nH]3)cc2)cn1 [Compound A32, 7-chloro-3-[4-(1-methyl-1H-pyrazol-4-yl)-phenyl]-2H-isoquinolin-1-one] | 300 to 3000 | < 300 |  | 300 to 3000 | 
12 | Oc1nc(-c2ccc(C(F)(F)F)cc2)nc2c1CSCC2 [XAV939] |  |  |  |  | inhibits growth

— patent publication US9376433B2, “(AZA-)isoquinolinone derivatives” (MERCK PATENT GMBH, priority 2012, dated 2016)
